Experimental data as given in US11998600B2, “Enhancing the therapeutic activity of an immune checkpoint inhibitor” (MaineHealth, priority 2015, dated 2024).

What was measured:
[1] = test system: chick chorioallantoic membrane (CAM); experiment: Chick CAM inflammation assay, induction by RGD collagen peptides; type: in vivo; settings: FGF-2, absence of cortisone acetate; FIG. 5D
Protocol: (§1) The chick chorioallantoic membrane (CAM) assays were carried out with some modifications (19). For all experiments CAMs of 10-day-old chick embryos obtained from Charles River (North Franklin, CT) were separated from the shell membrane. Filter discs either non-treated (inflammation assays) pretreated (angiogenesis assays) with cortisone acetate (3.0 mg/ml) containing RPMI only or FGF-2 (40 ng). CAMs were either non-treated or treated topically with Mab XL313, XL166 or a non-specific control antibody (10 μg/embryo every 24 h for three consecutive treatments). […] At the end of the incubation period the embryos were sacrificed and the CAM tissues were analyzed. Angiogenesis was quantified by counting the number of angiogenic branching blood vessels within the area of the filter disc. The angiogenic index was determined by subtracting the mean number of blood vessel branch points from untreated CAMs from each experimental condition. Eight to twelve embryos were used per condition and experiments were repeated at least three times.
The effects of the soluble RGD containing collagen peptides on inflammation were examined.

[2] = test system: chick embryos; experiment: Circulating Mab XL313 reactive epitope in chick embryo serum, solid-phase ELISA; type: in vivo; settings: serum collected three days after FGF-2 stimulation, FIG. 5A
Protocol: Due to the differential expression and bio-distribution of the RGDKGE (SEQ ID NO. 1) epitope in angiogenic CAM tissues and its expression in macrophage-conditioned medium, it was determined whether a soluble circulating form of this RGDKGE (SEQ ID NO. 1) epitope could be generated. To examine this possibility, chick embryos were either un-treated or stimulated with FGF-2 and serum, and collected three days later. […] In contrast, a (P<0.05) 2-fold increase was detected in the levels of circulating XL313 epitope following FGF-2 stimulation. These findings indicated the differential release of a soluble form of this RGDKGE (SEQ ID NO. 1) containing collagen epitope.

[3] = test system: chick chorioallantoic membrane (CAM); experiment: Macrophage infiltration of FGF-2 stimulated CAMs (KUL1 staining); type: in vivo; settings: FGF-2 stimulation, no cortisone acetate; FIG. 3D
Protocol: The chick chorioallantoic membrane (CAM) assays were carried out with some modifications (19). For all experiments CAMs of 10-day-old chick embryos obtained from Charles River (North Franklin, CT) were separated from the shell membrane. Filter discs either non-treated (inflammation assays) pretreated (angiogenesis assays) with cortisone acetate (3.0 mg/ml) containing RPMI only or FGF-2 (40 ng). CAMs were either non-treated or treated topically with Mab XL313, XL166 or a non-specific control antibody (10 μg/embryo every 24 h for three consecutive treatments). For peptide induction experiments, CAMs were stimulated with 100 ng/ml of the RGD peptides (P-1, P-2, P-C) in the presence or absence of the P38MAPK inhibitor, SB202190 (10 μM). At the end of the incubation period the embryos were sacrificed and the CAM tissues were analyzed. Angiogenesis was quantified by counting the number of angiogenic branching blood vessels within the area of the filter disc. The angiogenic index was determined by subtracting the mean number of blood vessel branch points from untreated CAMs from each experimental condition. […]
CAMs examined for accumulation of granulation tissue were harvested, fixed in 4% PFA and paraffin embedded and sectioned (4 μm) and stained with Giemsa. CAM tissues analyzed via immunofluorescence were harvested, embedded with OCT, snap frozen and sectioned (4 μM). […]

[4] = test system: chick chorioallantoic membrane (CAM); experiment: Chick CAM inflammation assay, FGF-2 induced, antibody treatment; type: in vivo; settings: FGF-2 stimulation in the absence of cortisone acetate; FIG. 3E
Protocol: as §1, with “Eight to twelve embryos were used per condition and experiments were repeated at least three times.” left out
The chick CAM has been routinely used to assess inflammation and granulation tissue formation, which are largely dependent on infiltration of chick heterophils (the avian equivalent of neutrophils), macrophages and activated fibroblasts (36,37). To study the potential differential biological impact of RGD epitopes, FGF-2 induced inflammation was examined by carrying out similar experiments in the absence of cortisone acetate and quantifying CAM thickening. […]

[5] = test system: PDL-1; experiment: PDL-1 Western blot, M21 melanoma cells attached to αvβ3 ligands; type: cell-based, human; settings: immobilized epitope vs uncoated wells; 15 minute incubation; FIG. 15
Protocol: FIGS. 14A and 14B are blots of integrin αvβ3 expressing melanoma cells (M21 and CLL-49) and FIG. 14C is a blot depicting that endothelial cells (HUVEC) were allowed to attach to well coated with either a non-αvβ3 binding ligand (native collagen-IV) or an αvβ3 binding ligand (denatured collagen-IV). Whole cell lysates were prepared and the relative levels of PDL-1 or loading control β-actin were assessed by Western blot.
Integrin αvβ3 expressing melanoma cells (M21) were seeded on control uncoated wells or wells immobilized with the XL313 cryptic collagen epitope (RGDKGE (SEQ ID NO. 1)). Following a 15 minute incubation cell lysates were prepared. The relative levels of PDL-1 or loading control β-actin were assessed by Western blot.
Integrin αvβ3 expressing melanoma cells M21 (FIG. 14A) and CCL-49 (FIG. 14B) and endothelial cells (HUVEC) (FIG. 14C) were attached to wells coated with either a non-αvβ3 binding ligand (native collagen-IV) or an αvβ3 binding ligand (denatured collagen-IV). Whole cell lysates were prepared and the relative levels of PDL-1 or β-actin loading control were assessed.
Integrin αvβ3 expressing melanoma cells (M21) were seeded onto control uncoated wells or wells immobilized with the XL313 cryptic collagen epitope (RGDKGE (SEQ ID NO. 1)) (FIG. 15). Following an incubation period, cell lysates were prepared and relative levels of PDL-1 were assessed.

Substance | CAMs exhibiting extensive tissue thickening [1] | increase in levels of circulating XL313 epitope in serum [2] | macrophage infiltration of the CAMs, enhancement as compared to control [3] | CAMs showing robust formation of thick granulation tissue [4] | levels of PDL-1 protein in M21 melanoma cells on immobilized epitope [5]
FGF-2: Fibroblast growth factor-2 from R&D Systems, stimulus of CAM angiogenesis and inflammation | 55%-60% | 2 fold | over 2 fold | approximately 50% | 
RGDKGE (immobilized on wells) [XL313 epitope, αvβ3 ligand] |  |  |  |  | enhanced levels of PDL-1 protein
